From ChEMBL document CHEMBL1201862, “PubChem BioAssay data set” (2004)
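Growth conditions: 96-well plates. Treatment: test compound, 48 hours, 5 concentrations. Analysis: linear interpolation between bracketing concentrations; unreached endpoints set to highest concentration. GI50 marks 50% less growth.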 The source made the active and inactive calls. No stated cut-off is given here; in the data, active = GI50 up to about 1.1 µM and inactive = higher.

Key:
Assay in all cases: DTP human tumour cell line panel, 48 h
[1] = system: 786-0
[2] = system: A498
[3] = system: A549
[4] = system: CCRF-CEM
[5] = system: DU-145
[6] = system: HCC 2998
[7] = system: HCT-15
[8] = system: MCF7
[9] = system: MDA-MB-231
[10] = system: NCI-H226
[11] = system: SF-268
[12] = system: SF-295
[13] = system: SK-MEL-2
[14] = system: SK-MEL-5
[15] = system: U-251
[16] = system: UACC-257
[17] = system: UACC-62
[18] = system: MDA-MB-435
[19] = system: OVCAR-3
[20] = system: OVCAR-4

Row | SMILES | GI50 [1] | GI50 [2] | GI50 [3] | GI50 [4] | GI50 [5] | GI50 [6] | GI50 [7] | GI50 [8] | GI50 [9] | GI50 [10] | GI50 [11] | GI50 [12] | GI50 [13] | GI50 [14] | GI50 [15] | GI50 [16] | GI50 [17] | GI50 [18] | GI50 [19] | GI50 [20]
1 | CN(C)c1nc2nonc2nc1Nc1ccccc1 | > 100 µM (inactive) | > 100 µM (inactive) | > 100 µM (inactive) | > 100 µM (inactive) | > 100 µM (inactive) | > 100 µM (inactive) | > 100 µM | > 100 µM (inactive) | > 100 µM (inactive) | > 100 µM (inactive) | > 100 µM (inactive) | > 100 µM (inactive) | > 100 µM (inactive) | > 100 µM (inactive) | > 100 µM (inactive) | > 100 µM (inactive) | > 100 µM (inactive) |  |  | 
2 | CN1CCOC(c2ccc(Cl)cc2)O1 (stereo unspecified) |  | > 100 µM (inactive) | > 100 µM (inactive) | > 100 µM (inactive) |  | > 100 µM (inactive) | > 100 µM | > 100 µM (inactive) | > 100 µM (inactive) | > 100 µM (inactive) | > 100 µM (inactive) | > 100 µM (inactive) | > 100 µM (inactive) | > 100 µM (inactive) | > 100 µM (inactive) | > 100 µM (inactive) | > 100 µM (inactive) | > 100 µM (inactive) | > 100 µM (inactive) | > 100 µM (inactive)
3 | CCCC(O)C(NC(=O)CCl)C(=O)O (stereo unspecified) |  | > 100 µM (inactive) | > 100 µM (inactive) | > 100 µM (inactive) |  | > 100 µM (inactive) | > 100 µM | > 100 µM (inactive) |  | > 100 µM (inactive) | > 100 µM (inactive) | > 100 µM (inactive) | > 100 µM (inactive) | > 100 µM (inactive) | > 100 µM (inactive) | > 100 µM (inactive) | > 100 µM (inactive) |  | > 100 µM (inactive) | > 100 µM (inactive)
4 | Cc1ccc(C(C)(C)C[P+](C)(c2ccccc2)c2ccccc2)cc1 |  | 34.4 µM (inactive) | 11.6 µM (inactive) | 9.08 µM (inactive) |  | 9.73 µM (inactive) | 99.3 µM | 7.93 µM (inactive) |  | 15.6 µM (inactive) | 16.9 µM (inactive) | 26.7 µM (inactive) | 4.21 µM (inactive) | 3.42 µM (inactive) | 11.6 µM (inactive) | 3.56 µM (inactive) | 5.38 µM (inactive) |  | 3.24 µM (inactive) | 9.18 µM (inactive)
5 | C=CCn1c(-c2ccc(Cl)cc2)cs/c1=N\c1ccccc1OC | > 100 µM (inactive) | > 100 µM (inactive) | 33 µM (inactive) | 8.55 µM (inactive) | > 100 µM (inactive) | > 100 µM (inactive) | 50 µM | 27.4 µM (inactive) |  | > 64.7 µM (inactive) | > 100 µM (inactive) | 16.6 µM (inactive) | > 74.3 µM (inactive) | 2.31 µM (inactive) | > 69.5 µM (inactive) | 7.46 µM (inactive) | 10.1 µM (inactive) | 5.06 µM (inactive) | 40.8 µM (inactive) | > 58.5 µM (inactive)
6 | CCOC(=O)c1ccc(/N=c2/[nH]c3ccccc3s/c2=N/c2ccc(C(=O)OCC)cc2)cc1 | 25.4 µM (inactive) | 82 µM (inactive) | 95.7 µM (inactive) | > 100 µM (inactive) | > 100 µM (inactive) | > 100 µM (inactive) | > 100 µM |  | > 100 µM (inactive) | > 100 µM (inactive) | > 100 µM (inactive) | 83 µM (inactive) | > 100 µM (inactive) | > 100 µM (inactive) | 39.4 µM (inactive) | > 100 µM (inactive) | > 100 µM (inactive) | > 100 µM (inactive) |  | 33.6 µM (inactive)
7 | O=C1/C(=C2/CCCN2)C(c2ccc[nH]2)=NN1c1ccccc1 | > 100 µM (inactive) | > 100 µM (inactive) | > 100 µM (inactive) | 1.75 µM (inactive) | > 100 µM (inactive) |  | > 100 µM |  | > 100 µM (inactive) | > 100 µM (inactive) | > 100 µM (inactive) | > 100 µM (inactive) | > 100 µM (inactive) | > 100 µM (inactive) | > 100 µM (inactive) | > 100 µM (inactive) | > 100 µM (inactive) | > 100 µM (inactive) | > 100 µM (inactive) | > 100 µM (inactive)
8 | CCCNC1=C(C)C(=O)C2=C(C1=O)[C@H](COC(N)=O)[C@]1(OC)[C@@H]3N[C@@H]3CN21 |  | 2.69 µM (inactive) | 0.43 µM (active) | 3.16 µM (inactive) |  | 3.79 µM (inactive) | 4.01 µM | 0.0422 µM (active) |  | 6.27 µM (inactive) | 4.65 µM (inactive) | 2.39 µM (inactive) | 9.51 µM (inactive) | 0.65 µM (active) | 2.48 µM (inactive) | 5.55 µM (inactive) | 0.472 µM (active) |  | 11.6 µM (inactive) | 6.93 µM (inactive)
9 | C[C@@H](N[C@H]1CCC[C@@H]1O)c1ccccc1.C[C@@H](N[C@H]1CCC[C@H]1O)c1ccccc1 | 70.1 µM (inactive) | > 100 µM (inactive) | > 100 µM (inactive) | 89.9 µM (inactive) |  | 65.8 µM (inactive) | > 100 µM |  |  | 19.9 µM (inactive) | > 100 µM (inactive) | 40.4 µM (inactive) | > 100 µM (inactive) | 57.7 µM (inactive) | 48.1 µM (inactive) | > 100 µM (inactive) | 75 µM (inactive) |  | > 100 µM (inactive) | > 100 µM (inactive)
10 | Cc1cc(N(CCC#N)CCC#N)ccc1/C=C/C(=O)Nc1ccccc1Cl | > 100 µM (inactive) | > 100 µM (inactive) | > 100 µM (inactive) | 45.5 µM (inactive) |  | > 100 µM (inactive) | > 100 µM |  |  | > 100 µM (inactive) | > 100 µM (inactive) | > 100 µM (inactive) | > 100 µM (inactive) | > 100 µM (inactive) | > 100 µM (inactive) | > 100 µM (inactive) | > 100 µM (inactive) |  | > 100 µM (inactive) | > 100 µM (inactive)
11 | Cc1cccc(=O)c([O-])c1.Cc1cccc(=O)c([O-])c1.[Bi+3].[Cl-] | 13.7 µM (inactive) | 16.5 µM (inactive) | 12.9 µM (inactive) | 2.18 µM (inactive) |  | 11.5 µM (inactive) | 4.84 µM |  |  | 18.1 µM (inactive) | 6.61 µM (inactive) | 10.4 µM (inactive) | 16.8 µM (inactive) | 11.3 µM (inactive) | 11.5 µM (inactive) | 8.32 µM (inactive) | 7.96 µM (inactive) |  | 2.74 µM (inactive) | 6.07 µM (inactive)
12 | CCNC(=O)CCN(C(=O)O)S(=O)(=O)c1ccc(NC(=O)c2ccccc2)cc1 | 10.3 µM (inactive) | > 100 µM (inactive) | > 100 µM (inactive) | 59.4 µM (inactive) |  | > 100 µM (inactive) | > 100 µM |  |  | > 100 µM (inactive) | > 100 µM (inactive) | > 100 µM (inactive) | > 100 µM (inactive) | > 100 µM (inactive) | > 100 µM (inactive) | > 100 µM (inactive) | > 100 µM (inactive) |  | > 100 µM (inactive) | > 100 µM (inactive)
13 | Cc1c(C(=O)C/C(=N/NC(=O)CC#N)C(N)=O)[n+]([O-])c2ccccc2[n+]1[O-] | > 100 µM (inactive) | > 100 µM (inactive) | > 100 µM (inactive) | 35.1 µM (inactive) |  | 39.5 µM (inactive) | 25.9 µM |  |  | > 100 µM (inactive) | 34.3 µM (inactive) | > 100 µM (inactive) | > 100 µM (inactive) | 40.6 µM (inactive) | 35.7 µM (inactive) | 35.9 µM (inactive) | 33 µM (inactive) |  | 22.9 µM (inactive) | 32.7 µM (inactive)
14 | CSCCC(NC(=O)C(Cc1ccccc1)NC(=O)CNC(=O)CNC(=O)C(N)Cc1ccc(O)cc1)C(=O)O (stereo unspecified) |  | > 100 µM (inactive) | > 100 µM (inactive) | > 100 µM (inactive) |  | > 100 µM (inactive) | > 100 µM | > 100 µM (inactive) |  |  | > 100 µM (inactive) | > 100 µM (inactive) | > 100 µM (inactive) | > 100 µM (inactive) | > 100 µM (inactive) | > 100 µM (inactive) | > 100 µM (inactive) |  | > 100 µM (inactive) | > 100 µM (inactive)
15 | C[C@@H]1OC(=O)/C(=C\N(C)C)[C@H]2CC(=O)N(CCc3cn(S(=O)(=O)C(F)(F)F)c4ccccc34)C[C@H]12 | > 100 µM (inactive) | > 100 µM (inactive) | > 100 µM (inactive) |  |  | > 100 µM (inactive) | > 100 µM | > 100 µM (inactive) | > 100 µM (inactive) | > 100 µM (inactive) | > 100 µM (inactive) | > 100 µM (inactive) | > 100 µM (inactive) | > 100 µM (inactive) | > 100 µM (inactive) | > 100 µM (inactive) |  | > 100 µM (inactive) | > 100 µM (inactive) | > 100 µM (inactive)
16 | COc1cc(CC2c3cc(OC)c(OC)cc3CCN2C)c(Oc2cc3c(cc2OC)-c2c(OC)c(OC)c(OC)c4c2C(C3)N(C)CC4)cc1OC (stereo unspecified) | 8.39 µM (inactive) | 15.3 µM (inactive) | 15.9 µM (inactive) | 16.4 µM (inactive) |  | 5.32 µM (inactive) | 10.1 µM |  |  | 17.2 µM (inactive) | 15 µM (inactive) | 14.6 µM (inactive) | 14.6 µM (inactive) | 4.33 µM (inactive) | 12.6 µM (inactive) | 6.31 µM (inactive) | 15.2 µM (inactive) |  | 12.3 µM (inactive) | 16 µM (inactive)
